Measurements from patent publication US20250170127A1, “RE-SENSITIZING MULTIDRUG-RESISTANT (MDR) GRAM-NEGATIVE BACTERIA TO COLISTIN USING IONOPHORES” (The Regents of the University of Colorado, a body corporate, priority 2022, published 2025).

Experiments:
E. coli AR-0493 [1] = test: MIC, CLSI broth microdilution, substance alone; assay type: cell-based
Experimental: A MDR E. coli strain AR-0493 (a.k.a., ATCC BAA-3170) was obtained from the CDC and FDA Antibiotic Resistance Bank and used for the initial screen. […] Considering the difficulties on the discovery of novel antimicrobial reagents against Gram-negative bacteria, we chose to screen the fragment-based library of 3,200 compounds from TimTec (Tampa, FL). […] The screen used a modified broth microdilution assay.
These 10 compounds were tested for their MICs and minimum re-sensitizing concentrations (MRCs) in the presence colistin at 2 μg/mL in E. coli AR-0493. […] To evaluate their toxicity in mammalian cells, the present inventors treated human epithelial adenocarcinoma HeLa cells with each compound at a wide range of concentrations. […]
(§1) General Methods. MDR strains E. coli AR-0493, AR-0346, and AR-0538, Salmonella Enteritidis AR-0496, Salmonella Typhimurium AR-0635, K. pneumoniae AR-0497, A. baumannii AR-0300 and AR-0310 were all obtained from the CDC & FDA Antibiotic Resistance Isolate Bank. E. coli K-12 was a gift from the Copley lab (Department of MCD Biology, University of Colorado Boulder). HeLa cells were purchased from the ATCC. All bacterial strains were grown on trypticase soy agar supplemented with 5% sheep blood (BAP). Bacteria were then cultured in Luria-Bertani (LB) medium at 35° C. until they achieve the log phase before screening or antimicrobial testing using CAMHB media. MIC, MRC, and checkerboard analyses and mammalian growth inhibition analyses in Hela cells were performed as described previously. More details are given in Supporting information.

E. coli AR-0493 [2] = test: Minimum re-sensitizing concentration (MRC) in the presence of colistin; assay type: cell-based; conditions: in the presence of 2 μg/mL colistin, E. coli AR-0493
Experimental: These 10 compounds were tested for their MICs and minimum re-sensitizing concentrations (MRCs) in the presence colistin at 2 μg/mL in E. coli AR-0493.
The present inventors further conducted MRC screens of selected compounds from groups 2-5 in AR-0493. Compound were tested against AR-0493 with compound X+2 μg/mL Colistin.
All compounds were tested for their respective minimum resensitizing concentrations (MRCs) for colistin against E. coli. AR0493, a MDR strain from CDC and FDA Antibiotic Resistance Bank. […] For the symmetrical bisanilino series, 7a-p, electron-donating alkyl and alkoxy groups (entries 7a-g, Table 5) at various positions of the phenyl rings were investigated. […] Three asymmetric bisanilino analogs (7q-s, Table 5) were synthesized based on the SARs of the monoanilino analogs 8a-p (vide infra).
as §1

P. aeruginosa AR-0239 = test: Colistin MIC in the absence or presence of RMA compound; assay type: cell-based; conditions: for fold reduction of colistin MIC: 1 μg/mL of compound; for Colistin MIC (+ compound): in the presence of 1 μg/mL of compound indicated
Experimental: (§2) To evaluate the mammalian toxicity of these analogs, Applicants tested them in cell viability assay using human cervical adenocarcinoma HeLa cells. Their respective half maximal growth inhibition concentration (GI50) was calculated using KaleidaGraph. The selectivity index (SI) for each compound was also calculated as the ratio of their GI50 and MRC. […] Therefore, Applicants selected two bisanilino analogs, 7l and 7m, that bear chlorines at the meta- and para-positions, respectively, of the phenyl groups for further characterization studies. […]. […] Their mammalian toxicities were also evaluated, and SIs calculated. […] Applicants we next explored the scope of analogs 71 and 7m their colistin-potentiating activity in 8 different MDR Gram negative bacteria with diverse genetic backgrounds and resistance mechanisms (Table 7). All strains were obtained from CDC and FDA Antibiotic Resistance Bank. For example, E. coli AR-0493 and K. pneumoniae AR-0497 carry the plasmid that contains the most prevalent mcr-1 gene. E. coli AR-0538, Salmonella Typhimurium AR-0539 and AR-0635 contain the mcr-2, 3, and 4 genes, respectively. These genes encode the phosphoethanolamine transferase, which was originated form the chromosome of A. baumannii, such as AR-0310. […]. A. baumannii AR-0310 appears more sensitive to these two compounds and the MICs of colistin was reduced to 0.25 μg/mL.

[3] = tested on: Salmonella Typhimurium AR-0539; test: as above; assay type: cell-based; conditions: for Colistin MIC (+ compound): in the presence of 1 μg/mL of compound indicated, S. Typhimurium AR-0539
Experimental: as §2

P. aeruginosa AR-0257 = test: as above; assay type: cell-based; conditions: for fold reduction of colistin MIC: 1 μg/mL of compound; for Colistin MIC (+ compound): in the presence of 1 μg/mL of compound indicated
Experimental: as §2

HeLa cells = test: in vitro; assay type: cell-based, human
Experimental: These 10 compounds were tested for their MICs and minimum re-sensitizing concentrations (MRCs) in the presence colistin at 2 μg/mL in E. coli AR-0493. […] To evaluate their toxicity in mammalian cells, the present inventors treated human epithelial adenocarcinoma HeLa cells with each compound at a wide range of concentrations.
as §2, §1

K. pneumoniae AR-0497 = test: Colistin MIC in the absence or presence of RMA compound; assay type: cell-based; conditions: for Colistin MIC (+ compound): in the presence of 1 μg/mL of compound indicated, K. pneumoniae AR-0497; for Colistin MIC: colistin alone, K. pneumoniae AR-0497, mcr-1
Text: (§3) To investigate the scope of the colistin-potentiation effect of compound 3, the present inventors screened a panel of MDR Gram-negative bacteria obtained from the CDC and FDA Antibiotic Resistance Bank. These include a variety of Enterobacteriaceae spp., such as E. coli AR-0346 and AR-0538, K. pneumoniae AR-0497, Salmonella Enteritidis AR-0496, and Salmonella Typhimurium AR-0635. These strains all express the mcr genes (e.g., mcr-1, mcr-2, and mcr-4) and are resistant to colistin with its MICs of 8-16 μg/mL (Table 2). […] The only exception is Salmonella Typhimurium AR-0635, which expresses mcr-4 gene. […]. […]. Furthermore, the present inventors also tested the activity of colistin in the presence or absence of 1 μg/mL compound 3 in a wild-type E. coli K-12. […] The MICs of compound 3 in all these strains were >64 μg/mL, the highest concentration tested.
as §2, §1

[4] = tested on: Salmonella Typhimurium AR-0635; test: as above; assay type: cell-based; conditions: for Colistin MIC (+ compound): in the presence of 1 μg/mL of compound indicated, S. Typhimurium AR-0635; for Colistin MIC: colistin alone
Text: as §3, §2, §1

E. coli AR-0538 = test: as above; assay type: cell-based; conditions: for Colistin MIC (+ compound): in the presence of 1 μg/mL of compound indicated, E. coli AR-0538; for Colistin MIC: colistin alone, E. coli AR-0538, mcr-2
Text: as §3, §2, §1

E. coli AR-0493 [5] = test: as above; assay type: cell-based; conditions: for Colistin MIC (+ compound): in the presence of 1 μg/mL of compound indicated, E. coli AR-0493; for Colistin MIC: colistin alone, E. coli AR-0493, mcr-1
Text: as §3, §2, §1

A. baumannii AR-0310 = test: as above; assay type: cell-based; conditions: for Colistin MIC (+ compound): in the presence of 1 μg/mL of compound indicated; for Colistin MIC: colistin alone
Text: as §3, §2, §1

mitochondria = conditions: previously reported; in vitro and in mice; cited from earlier work
[6] = tested on: MDR Gram-negative bacteria; test: MICs across a panel of MDR Gram-negative bacteria (summary statements); assay type: cell-based; conditions: colistin alone
Text: as §3, §2, §1

P. aeruginosa AR-0768 = test: Colistin MIC in the absence or presence of RMA compound; assay type: cell-based; conditions: colistin alone
Text: as §3

E. coli AR-0349 = test: MICs of a panel of 9 antibiotics with and without compound 3; assay type: cell-based
A. baumannii AR-0300 = test: Colistin MIC in the absence or presence of RMA compound; assay type: cell-based; conditions: colistin alone
Text: as §3, §1

E. coli K-12 = test: as above; assay type: cell-based; conditions: colistin alone; wild-type E. coli K-12
Text: as §3, §1

E. coli AR-0346 = test: as above; assay type: cell-based; conditions: colistin alone; E. coli AR-0346, mcr-1
Text: as §3, §1

[7] = tested on: Salmonella Enteritidis AR-0496; test: as above; assay type: cell-based; conditions: colistin alone; Salmonella Enteritidis AR-0496, mcr-1
Text: as §3, §1

Compound: Clc1cccc(Nc2nc3nonc3nc2Nc2cccc(Cl)c2)c1 [Compound 7l]
- MIC (E. coli AR-0493 [1]): >64 µg/mL
- MRC (minimum re-sensitizing concentration) (E. coli AR-0493 [2]): 0.25 µg/mL
- fold reduction of colistin MIC (P. aeruginosa AR-0239): 4 folds
- Colistin MIC (+ compound) (P. aeruginosa AR-0239): 1 µg/mL
- Colistin MIC (+ compound) [3]: 1 µg/mL
- fold reduction of colistin MIC (P. aeruginosa AR-0257): 4 folds
- Colistin MIC (+ compound) (P. aeruginosa AR-0257): 2 µg/mL
- GI50 (HeLa cells): 1.1 µg/mL
- Colistin MIC (+ compound) (K. pneumoniae AR-0497): 1 µg/mL
- Colistin MIC (+ compound) [4]: 1 µg/mL
- Colistin MIC (+ compound) (E. coli AR-0538): 1 µg/mL
- Colistin MIC (+ compound) (E. coli AR-0493 [5]): 1 µg/mL
- Colistin MIC (+ compound) (A. baumannii AR-0310): 0.25 µg/mL

Compound: Clc1ccc(Nc2nc3nonc3nc2Nc2ccc(Cl)cc2)cc1 [Compound 7m]
- MIC (E. coli AR-0493 [1]): >64 µg/mL
- MRC (minimum re-sensitizing concentration) (E. coli AR-0493 [2]): 0.5 µg/mL
- fold reduction of colistin MIC (P. aeruginosa AR-0239): 4 folds
- Colistin MIC (+ compound) (P. aeruginosa AR-0239): 1 µg/mL
- Colistin MIC (+ compound) [3]: 2 µg/mL
- fold reduction of colistin MIC (P. aeruginosa AR-0257): 4 folds
- Colistin MIC (+ compound) (P. aeruginosa AR-0257): 2 µg/mL
- GI50 (HeLa cells): 2.8 µg/mL
- Colistin MIC (+ compound) (K. pneumoniae AR-0497): 1 µg/mL
- Colistin MIC (+ compound) [4]: 1 µg/mL
- Colistin MIC (+ compound) (E. coli AR-0538): 2 µg/mL
- Colistin MIC (+ compound) (E. coli AR-0493 [5]): 1 µg/mL
- Colistin MIC (+ compound) (A. baumannii AR-0310): 0.25 µg/mL

Compound: FC(F)(F)Oc1ccc(Nc2nc3nonc3nc2Nc2ccc(OC(F)(F)F)cc2)cc1 [Compound 7p]
- mitochondrial uncoupler activity (mitochondria): poor uncoupler
- MIC (E. coli AR-0493 [1]): >64 µg/mL
- MRC (minimum re-sensitizing concentration) (E. coli AR-0493 [2]; listed as 57p): 0.25 µg/mL
- GI50 (HeLa cells): 5.7 µg/mL

Compound: Oc1nc2nonc2nc1Nc1ccc(OC(F)(F)F)cc1 [Compound 8p]
- mitochondrial uncoupler activity (mitochondria): one of the most potent uncouplers

Compound: Colistin [reference compound]
- Colistin MIC ([6]; 8 MDR Gram negative strains of Table 7): 4 to 32 µg/mL
- Colistin MIC ([6]; mcr-expressing Enterobacteriaceae strains of Table 2): 8 to 16 µg/mL
- Colistin MIC (P. aeruginosa AR-0768): 16 µg/mL
- INT (S-R interpretation) (E. coli AR-0349; CLSI 2021, M100, Ed 31): R
- MIC (E. coli AR-0349; antibiotic alone, multidrug-resistant E. coli): 16 µg/mL
- fold of potentiation (E. coli AR-0349; by 1 μg/mL of compound 3): 16 fold
- MIC (+3) (E. coli AR-0349; in the presence of 1 μg/mL of compound 3): 1 µg/mL
- MIC (E. coli AR-0493 [1]): 16 µg/mL
- Colistin MIC (A. baumannii AR-0300): 8 µg/mL
- Colistin MIC (E. coli K-12): 0.25 µg/mL
- Colistin MIC (E. coli AR-0346): 8 µg/mL
- Colistin MIC [7]: 16 µg/mL
- Colistin MIC (P. aeruginosa AR-0239; colistin alone): 4 µg/mL
- Colistin MIC ([3]; colistin alone, S. Typhimurium AR-0539, mcr-3): 8 µg/mL
- Colistin MIC (P. aeruginosa AR-0257; colistin alone): 8 µg/mL
- Colistin MIC (K. pneumoniae AR-0497; Table 2): 8 µg/mL
- Colistin MIC (K. pneumoniae AR-0497; Table 7): 8 µg/mL
- Colistin MIC ([4]; S. Typhimurium AR-0635, mcr-4, Table 7): 32 µg/mL
- Colistin MIC ([4]; Salmonella Typhimurium AR-0635, mcr-4, Table 2): 16 µg/mL
- Colistin MIC (E. coli AR-0538; Table 2): 8 µg/mL
- Colistin MIC (E. coli AR-0538; Table 7): 8 µg/mL
- Colistin MIC (E. coli AR-0493 [5]; Table 2): 16 µg/mL
- Colistin MIC (E. coli AR-0493 [5]; Table 7): 8 µg/mL
- Colistin MIC (A. baumannii AR-0310; Table 2): 16 µg/mL
- Colistin MIC (A. baumannii AR-0310; Table 7): 32 µg/mL
